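1) Cells in 96-well plates. 2) Compound, 48 h, 5 concentrations. 3) Linear interpolation between surrounding doses. 4) Unreached endpoint = highest concentration. GI50 marks 50% less growth.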 Calls of active or inactive are those of the source. No stated cut-off is given here; in the data, active = GI50 up to about 1.1 µM and inactive = higher.
Tests used:
Test in all cases: DTP human tumour cell line panel, 48 h
[1] = test system: SK-MEL-2
[2] = test system: SN12C
[3] = test system: MDA-N
[4] = test system: A549
[5] = test system: M14
[6] = test system: SK-MEL-5
[7] = test system: RPMI-8226
[8] = test system: HOP-92
[9] = test system: KM12
[10] = test system: ACHN
[11] = test system: OVCAR-5
[12] = test system: SNB-19
[13] = test system: 786-0
[14] = test system: SR
[15] = test system: MCF7
[16] = test system: TK-10
[17] = test system: PC-3
[18] = test system: LOX IMVI
[19] = test system: RXF 393

Measured: GI50

Cc1ccc2nc(Cl)c(/C=N/N3C(=O)/C(=C/c4ccccc4S)N=C3c3ccccc3)cc2c1
inactive: [1] 20.4 µM | [2] 35.7 µM | [3] 17 µM | [4] 33.4 µM | [5] 23.3 µM | [6] 31.6 µM | [7] 21.4 µM | [8] 73.6 µM | [9] 25.5 µM | [10] 46.6 µM | [11] > 100 µM | [12] 52.8 µM | [13] 54 µM | [14] 7.96 µM | [15] 26.9 µM | [16] 48.6 µM | [17] 38.3 µM | [18] 34.8 µM

CCCCCCCCCCCCCCCCNC(=O)/C(O)=C/C(=O)c1ccc(C)cc1
inactive: [1] > 10 µM | [2] > 10 µM | [3] > 10 µM | [5] > 10 µM | [19] > 10 µM | [6] > 10 µM | [7] > 10 µM | [9] > 10 µM | [10] > 10 µM | [11] > 10 µM | [13] > 10 µM | [14] > 10 µM | [15] > 10 µM | [16] > 10 µM | [17] 3.32 µM | [18] > 10 µM

CCOC(=O)c1cc(C2(O)CCN(Cc3ccccc3)C2=O)c(-c2cc(C)no2)[nH]1 (stereo unspecified)
inactive: [1] 48.8 µM | [2] 69 µM | [3] 57.3 µM | [4] 40.1 µM | [5] 55 µM | [19] 13.3 µM | [6] 40 µM | [7] 26.4 µM | [9] 37.8 µM | [10] 45.5 µM | [11] 61.4 µM | [12] 81.1 µM | [13] 60.3 µM | [14] 27.3 µM | [15] 47.4 µM | [16] 67.1 µM | [17] 42.4 µM | [18] 29.5 µM

CN(C)CCCn1cnc2cc(Cl)c(Cl)cc21
inactive: [1] > 100 µM | [2] 43.8 µM | [3] 34.1 µM | [4] > 100 µM | [5] 16.6 µM | [19] 61.2 µM | [6] 53.1 µM | [7] 38.4 µM | [9] > 100 µM | [10] > 100 µM | [11] > 100 µM | [12] > 100 µM | [13] 59.6 µM | [14] 93.5 µM | [15] > 100 µM | [16] 42.7 µM | [17] > 100 µM | [18] 59.2 µM

N#Cc1c(-c2ccc(Cl)cc2)cc(-c2ccc(Nc3ccnc4cc(C(F)(F)F)ccc34)cc2)nc1N
inactive: [1] 27.8 µM | [2] 22 µM | [3] 32.8 µM | [4] 83.4 µM | [5] 19.5 µM | [19] 22.1 µM | [6] 25.3 µM | [7] 23.4 µM | [9] > 100 µM | [10] 17.4 µM | [11] 30.2 µM | [12] 16.9 µM | [13] 15 µM | [14] 3.74 µM | [15] 28.8 µM | [16] 31.2 µM | [17] 32.9 µM | [18] 3.72 µM

O=S1(=O)OCCOS(=O)(=O)C1S(=O)(=O)c1cccc2ccccc12
inactive: [1] > 100 µM | [2] > 100 µM | [3] > 100 µM | [4] > 100 µM | [5] > 100 µM | [6] > 100 µM | [7] > 100 µM | [8] > 100 µM | [9] > 100 µM | [10] > 100 µM | [11] > 100 µM | [12] > 10 µM | [13] 99.5 µM | [14] > 100 µM | [15] > 100 µM | [16] > 10 µM | [17] 42.3 µM | [18] 46.7 µM

CCOC(=O)c1c(NC(=O)c2ccc(OC)cc2)sc2c1CCCC2
inactive: [1] > 100 µM | [2] > 100 µM | [3] > 100 µM | [4] > 100 µM | [5] > 100 µM | [19] > 100 µM | [6] > 100 µM | [7] > 100 µM | [9] > 100 µM | [10] > 100 µM | [11] > 100 µM | [12] > 100 µM | [13] > 100 µM | [14] > 100 µM | [15] > 100 µM | [16] > 100 µM | [17] > 100 µM

COC(=O)CN(CC1O[C@@H]2OC(C)(C)O[C@@H]2C1NC(C)=O)C(=O)OCc1ccccc1 (stereo partly specified)
inactive: [1] > 100 µM | [2] > 100 µM | [3] > 100 µM | [4] > 100 µM | [5] > 100 µM | [6] > 100 µM | [7] > 100 µM | [8] > 100 µM | [9] > 100 µM | [10] > 100 µM | [11] > 100 µM | [12] > 100 µM | [13] > 100 µM | [14] > 100 µM | [15] > 100 µM | [16] > 100 µM | [17] > 100 µM | [18] > 100 µM

Reference: ChEMBL document CHEMBL1201862, “PubChem BioAssay data set” (2004)
